In assay [1] the test system is Staphylococcus epidermidis. The assay is described as follows: MIC and MBC. The assay is classed as cell-based.
In assay [2] the test system is J5 bacteria phagocytosed by J774A.1 mouse macrophage cell line. The assay is classed as cell-based.
The test system of assay [3] is E. coli H16.
The subject of a further assay is S. aureus. The assay is described as follows: MIC testing against S. aureus. The assay is classed as cell-based, Staph. aureus. As to conditions: for activity against S. aureus (in words): controls at concentrations used in the derivatization. Here is the method: 1.5 ml fractions were collected. The fractions in the void volume were pooled and sterile filtered. The activity of the conjugate was determined by standard MIC testing against S. aureus.

A further assay relates to E. coli. As to the kind of experiment: MIC assays, summary of modified PMB's. Particulars: relative to PMB.
In a further assay the target is type I pili (Escherichia coli, UniProt P08191).
In assay [4] the test system is E. coli H16. The class given is cell-based.
The mark [5] stands for this setting: Table 40, first number of the cell.
The mark [6] stands for this setting: concentration expressed as absorbance at 280 nm.

Values after ≈ are worked out from the molar mass of the structure shown. Where two headings read alike, the source gives them in different places. Bridge positions count the residues as written; N and C are the ends. Square brackets hold non-standard residues; d marks the D form. Peptide text beside a SMILES is read from it. * marks the point of attachment. Fluorescein(5-Mal) = O=C1OC2(c3ccc(O)cc3Oc3cc(O)ccc32)c2ccc(N3C(=O)CC(*)C3=O)cc21; Ileψ(thiazoline)Cys = CC[C@H](C)[C@H](N)C1=N[C@H](C(=O)*)CS1; dOrn = NCCC[C@@H](N)C(=O)O

type I pili, sequence (P08191 22-300): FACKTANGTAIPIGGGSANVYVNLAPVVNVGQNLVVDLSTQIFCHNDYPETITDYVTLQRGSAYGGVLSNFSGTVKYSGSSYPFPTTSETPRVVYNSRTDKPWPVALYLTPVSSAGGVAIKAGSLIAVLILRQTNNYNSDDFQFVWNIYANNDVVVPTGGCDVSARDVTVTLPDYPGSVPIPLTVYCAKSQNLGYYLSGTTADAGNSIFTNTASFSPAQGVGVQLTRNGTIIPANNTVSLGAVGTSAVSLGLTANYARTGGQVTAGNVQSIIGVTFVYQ
type I pili, sequence (P08190 24-167 partner): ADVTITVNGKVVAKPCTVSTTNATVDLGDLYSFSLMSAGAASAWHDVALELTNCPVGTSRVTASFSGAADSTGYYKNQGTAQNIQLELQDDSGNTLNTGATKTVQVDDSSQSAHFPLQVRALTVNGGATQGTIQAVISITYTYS
type I pili, sequence (P08189 23-176 partner limits assumed): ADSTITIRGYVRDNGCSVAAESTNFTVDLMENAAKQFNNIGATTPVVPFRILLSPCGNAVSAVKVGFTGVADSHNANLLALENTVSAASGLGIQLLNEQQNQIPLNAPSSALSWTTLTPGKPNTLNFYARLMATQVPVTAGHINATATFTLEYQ
type I pili, sequence (P04128 24-182 partner): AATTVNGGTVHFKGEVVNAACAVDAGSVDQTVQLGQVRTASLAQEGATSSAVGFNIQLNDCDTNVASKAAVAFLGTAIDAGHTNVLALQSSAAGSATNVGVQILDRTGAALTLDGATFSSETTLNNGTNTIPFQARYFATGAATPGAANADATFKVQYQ

The term MBC denotes the lowest tested concentration that kills the bacteria rather than only halting them. On to `CC[C@H](C)[C@H](N)C1=N[C@H](C(=O)N[C@@H](CC(C)C)C(=O)N[C@H](CCC(=O)O)C(=O)N[C@H](C(=O)N[C@H]2CCCCNC(=O)[C@H](CC(N)=O)NC(=O)[C@@H](CC(=O)O)NC(=O)[C@H](Cc3cnc[nH]3)NC(=O)[C@@H](Cc3ccccc3)NC(=O)[C@H]([C@@H](C)CC)NC(=O)[C@@H](CCCN)NC2=O)[C@@H](C)CC)CS1` [Bacitracin] ({Ileψ(thiazoline)Cys}-L[dE]IK[dOrn]I[dF]H[dD]N; lactam 4-C), for which the MIC in assay [1] (Table 25) turned out to be 25 µg/mL (≈ 17.6 µM). Further, the minimum bactericidal concentration (MBC) in assay [1] (Table 25, read-out: MBC) was 50 µg/mL (≈ 35.1 µM). Take `CC(C)C[C@H](NC(=O)[C@H](C)N)C(=O)N[C@@H](Cc1ccc(O)cc1)C(=O)N[C@@H](CCCCN)C(=O)N[C@@H](CCCCN)C(=O)N[C@@H](CC(C)C)C(=O)N[C@@H](CC(C)C)C(=O)N[C@@H](CCCCN)C(=O)N[C@@H](CCCCN)C(=O)N[C@@H](CC(C)C)C(=O)N[C@@H](CC(C)C)C(=O)N[C@@H](CCCCN)C(=O)N[C@@H](CO)C(=O)N[C@@H](C)C(=O)N[C@@H](CCCCN)C(=O)N[C@@H](CCCCN)C(=O)N[C@@H](CC(C)C)C(=O)NCC(=O)N[C@@H](CSC1CC(=O)N(c2ccc3c(c2)C(=O)OC32c3ccc(O)cc3Oc3cc(O)ccc32)C1=O)C(N)=O` (some centres unmarked) [C19G-Mal-FL] (H-ALYKKLLKKLLKSAKKLGC(Fluorescein(5-Mal))-NH2; N-terminus assumed): the “% Macrophage with phagocytosed bacteria” value in [2] (Table 61 (repeat assay), 1×10^8 J5 bacteria opsonized, from 100 macrophage examined, conjugates 0.5 ug/ml, anti-avidin 1/400, anti-fluorescein antibody 14 ug/ml) came to 8%. Further, in [2] (with anti-fluorescein antibody), the “enhancement of phagocytosis (in words)” value is recorded as “prevents the C19g-Mal-FL conjugate from enhancing bacterial phagocytosis”. For the same compound, in the assay with E. coli H16 [3], the MIC was 10 µg/mL (≈ 3.89 µM). In the case of “PMB-S-Mercaptosuccinyl-succinimidyl-fluorescein [PMB-SAMSA-Mal-FL]”, the MIC against E. coli 0111:B4 (setting [5]) was 10 µg/mL; with E. coli 0111:B4 (Table 44) it was 4 to 20 µg/mL. In turn, “S-hydroxyethylthio-maleimidobenzoyl-N-aminocephalosporanic acid ester” gave an MIC against S. aureus (setting [6]) of 0.86 A280. On to Polymyxin B-fluoroscein [PMB-NHS-FL], for which the “loss of anti-bacterial activity relative to PMB” value in the assay with E. coli HB101 was 10-20 fold. The MIC against E. coli HB101 (Table 44) lay in the range of 0.8 to 1 µg/mL. Take Lysyl-PMB [PMB-Lys]: the results for the MIC in the assay with E. coli 0111:B4 (setting [5]) and in the assay with E. coli 0111:B4 (Table 41) were 2.0 µg/mL and 2 µg/mL, respectively. The “antibiotic activity (in words)” value with E. coli is recorded as “Active”. In the case of Monoalanyl PMB [PMB-Ala], the MIC is 0.7 µg/mL against E. coli 0111:B4 (setting [5]) and 0.8 to 2 µg/mL in the assay on E. coli 0111:B4 (Table 41). For the same compound, the “antibiotic activity (in words)” value in the assay on E. coli is listed as “Active”. As for Imminothiolated PMB [PMB-Traut's], the “loss of anti-bacterial activity relative to PMB” value with E. coli HB101 is 40-80 fold. In the assay with E. coli HB101 (Table 41), the MIC is 4 µg/mL. `CC1=C(C(=O)O)N2C(=O)[C@@H](NC(=O)[C@H](N)c3ccc(O)cc3)[C@H]2SC1` [native cefadroxil, cefadroxil] showed an MIC in the assay on S. aureus (setting [6]) of 0.028 A280. For “t-butoxycarbonyl-alanine-polymyxin B [PMB-BOC-Ala]”, in the assay with E. coli 0111:B4 (Table 41), the MIC is 2 µg/mL. On to `O=C(Nc1ccc(O[C@H]2O[C@H](CO)[C@@H](O)[C@H](O)[C@@H]2O)cc1)c1ccccc1` [N-benzoyl derivative, 4-Benzamidophenyl-α-D-mannopyranoside], for which, on type I pili, the “activity relative to methyl α-mannopyranoside” value was determined as 1000 fold.

Regarding “Lysyl S-Succinamidyl (Fluorescein) PMB [PMB-Lys-FL]”, the MIC with E. coli 0111:B4 (setting [5]) worked out at 1 µg/mL. In the case of “ala-leu-tyr-lys-lys-leu-leu-lys-lys-leu-leu-lys-ser-ala-lys-lys-leu-gly-cys-amide [C19G]”, the “lower activity than C18G” value with E. coli H16 [4] was “about 5 fold”. In the assay on E. coli H16 [4] (Table 42), this compound gave a BDA of 25 to 50 µg/mL. On to `CC(C)C[C@H](NC(=O)[C@H](Cc1ccccc1)NC(=O)[C@H](CCCNC(=N)N)NC(=O)[C@H](CCCCN)NC(=O)[C@H](CCC(N)=O)NC(=O)[C@H](C)NC(=O)[C@H](CCCCN)NC(=O)[C@H](Cc1c[nH]c2ccccc12)NC(=O)[C@H](CCCCN)NC(=O)[C@@H](N)CS)C(=O)N[C@@H](CCCCN)C(=O)O` [C90-99, cys-lys-trp-lys-ala-gln-lys-arg-phe-leu-lys, reference compound], for which the MIC in the assay on E. coli 0111:B4 (0111:B4) and with E. coli HB101 (HB101) was over 75 µg/mL throughout. For the compound PMB-NHCOCH2SCOCH3 [PMB-SATA], the “loss of anti-bacterial activity relative to PMB” value in the assay with E. coli HB101 is given as “about 10 fold”. This compound gave an MIC in the assay on E. coli HB101 (Table 41) of 0.6 µg/mL. The “antibiotic activity (in words)” value in the assay with E. coli is listed as “Less Active”. For the compound `N[C@@H](Cc1ccccc1)C(=O)Nc1ccc(O[C@H]2O[C@H](CO)[C@@H](O)[C@H](O)[C@@H]2O)cc1` [4-(N-phenylalanyl)-aminophenyl-α-D-mannopyranoside], the “activity relative to methyl α-mannopyranoside” value at type I pili was “approximately 1000 fold”. Turning to “α-Boc-ε{flourescein) thiocarbamoyl}-lysyl PMB [PMB-Boc-Lys-FL]”, the MIC in the assay on E. coli 0111:B4 (setting [5]) came out at 12.5 µg/mL. On to `NCCO` [ethanolamine], for which the “activity against S. aureus (in words)” value with S. aureus is “inactive”. In the case of Cysteinyl-PMB [PMB-Cys], the MIC was 0.7 µg/mL in the assay with E. coli 0111:B4 (setting [5]) and 0.8 to 1 µg/mL in the assay with E. coli 0111:B4 (Table 41). Besides, the “antibiotic activity (in words)” value in the assay with E. coli is on record as “Active”. As for “S-hydroxyethylthio maleimidomethyl cyclohexane carboxyl-N-cefadroxil ester”, in the assay on S. aureus (setting [6]), the MIC came out at 1.6 A280.

In the case of `CC1(C)S[C@@H]2[C@H](NC(=O)[C@H](N)c3ccc(O)cc3)C(=O)N2[C@H]1C(=O)O` [native amoxicillin, amoxicillin], the MIC against S. aureus turned out to be 250 µg/mL (≈ 684 µM). With “S-Acetylmercaptosuccinyl PMB [PMB-SAMSA]”, the MIC in the assay on E. coli 0111:B4 (setting [5]) is 3.1 µg/mL; with E. coli 0111:B4 (Table 41), 3 µg/mL; against E. coli HB101 (Table 41), 0.5 to 3 µg/mL. In addition, in the assay on E. coli HB101, the “loss of anti-bacterial activity relative to PMB” value is reported as 10-30 fold. `OCCS` [beta-mercaptoethanol]: the “activity against S. aureus (in words)” value in the assay on S. aureus is “inactive”. On to `O=C(ON1C(=O)CC(S(=O)(=O)O)C1=O)c1cccc(N2C(=O)C=CC2=O)c1` (centres unmarked) [Sulfo-MBS, m-Maleimidobenzoyl-N-hydroxysulfosuccinimide ester], for which, in the assay with S. aureus, the “activity against S. aureus (in words)” value is “inactive”.

Turning to “S-(Acetomidomethyl)-t-butoxycarbonylcysteinyl PMB [PMB-Boc-Cys (ACM)]”, the MIC against E. coli 0111:B4 (setting [5]) was found to be 6.0 µg/mL; against E. coli 0111:B4 (Table 41) it was 5 µg/mL. In the same order, the values of “S-(Acetomidomethyl)cysteinyl PMB [PMB-Cys (ACM)]” are 1.2 µg/mL and 5 µg/mL. As for “α,ε-di-t-Butoxycarbonyl-lysyl-PMB [α,ε-di-t-butoxycarbonyl lysyl derivative]”, in the assay on E. coli, the “antibiotic activity (in words)” value is given as “significantly less active”.

As for `CC(=O)OCC1=C(C(=O)O)N2C(=O)[C@@H](N)[C@H]2SC1` [7-aminocephalosporanic acid], the MIC in the assay with S. aureus (setting [6]) is reported as 3.7 A280. On to `CC1(C)S[C@@H]2[C@H](N)C(=O)N2[C@H]1C(=O)O` [native aminopenicillanic acid, 6-aminopenicillanic acid], for which the MIC in the assay on S. aureus (Staphylococcus aureus, read-out: MIC) is 250 µg/mL (≈ 1160 µM).

The values above are taken from patent US6579696B1, “Polymyxin B conjugates” (priority 1992, dated 2003).
